Assay results taken from US8735364B2, “Antisense modulation of apolipoprotein B expression” (Genzyme Corporation, priority 2001, dated 2014).

Tests used:
Type in all cases: in vivo, mouse
apolipoprotein B mRNA [1] = assay: Target mRNA levels in liver, high fat fed mice, 6 week timecourse study; conditions: high fat fed C57BL/6 mice, six weeks
Method: (§1) Male C57BL/6 mice (n=8) receiving a high fat diet (60% kcal fat) were evaluated over the course of 6 weeks for the effects of treatment with the antisense oligonucleotide, ISIS 147764. Control animals received saline treatment (50 mg/kg). A subset of animals received a daily oral dose (20 mg/kg) atorvastatin calcium (Lipitor®, Pfizer Inc.). All mice, except atorvastatin-treated animals, were dosed intraperitoneally every three days (twice a week), after fasting overnight, with 5, 25, 50 mg/kg ISIS 147764 (SEQ ID No: 109) or saline (50 mg/kg) for six weeks. Serum cholesterol and lipoproteins were analyzed at 0, 2 and 6 week interim timepoints. At study termination, animals were sacrificed 48 hours after the final injections and evaluated for levels of target mRNA levels in liver, cholesterol, lipoprotein, triglyceride, liver enzyme (AST and ALT) and serum glucose levels as well as body, liver, spleen and fat pad weights.
(§2) Male C57BL/6 mice (n=8) receiving a high fat diet (60% kcal fat) were evaluated over the course of 6 weeks for the effects of ISIS 147764 on mRNA expression. Control animals received saline treatment (50 mg/kg). Mice were dosed intraperitoneally every three days (twice a week), after fasting overnight, with 5, 25, 50 mg/kg ISIS 147764 (SEQ ID No: 109) or saline (50 mg/kg) for six weeks. At study termination, animals were sacrificed 48 hours after the final injections and evaluated for levels of target mRNA levels in liver.

[2] = Serum cholesterol and triglyceride levels, high fat fed mice, 6 week study; conditions: for Percent Inhibition of cholesterol levels: normalized to saline; for triglycerides / serum cholesterol: study end; for triglycerides: control 115 mg/dL; for serum cholesterol: control 240 mg/dL
Method: as §1
as §2, with “serum cholesterol and triglyceride levels.” for “mRNA expression.”, “weeks.” for “weeks. At study termination, animals were sacrificed 48 hours after the final injections and evaluated for levels of target mRNA levels in liver.”
Values in the table are expressed as percent inhibition and are normalized to the saline control.
In addition to serum cholesterol, at study termination, animals were sacrificed 48 hours after the final injections and evaluated for triglyceride levels.

[3] = Serum glucose levels, high fat fed mice, 6 week study; conditions: study termination, saline control 300 mg/dL
Method: as §1
as §2, with “serum glucose levels.” for “mRNA expression.”, “weeks.” for “weeks. At study termination, animals were sacrificed 48 hours after the final injections and evaluated for levels of target mRNA levels in liver.”
At study termination, animals were sacrificed 48 hours after the final injections and evaluated for serum glucose levels. […] Mice treated with atorvastatin at a daily oral dose of 20 mg/kg had serum glucose levels of 215 mg/dL.

apolipoprotein B mRNA [4] = assay: Target mRNA levels in liver of ApoE knockout mice, RT-PCR; conditions: six weeks
Method: (§3) Female ApoE knockout mice ranged in age from 5 to 7 weeks and were placed on a normal diet for 2 weeks before study initiation. ApoE knockout mice were then fed ad libitum a 60% fat diet, with 0.15% added cholesterol to induce dyslipidemia and obesity. Control animals were maintained on a high-fat diet with no added cholesterol After overnight fasting, mice from each group were dosed intraperitoneally every three days with saline, 50 mg/kg of a control antisense oligonucleotide (ISIS 29837 […]; SEQ ID NO. 124) or 5, 25 or 50 mg/kg ISIS 147764 (SEQ ID No: 109) for six weeks.
(§4) At study termination and forty eight hours after the final injections, animals were sacrificed and evaluated for target mRNA levels in liver by RT-PCR methods verified by Northern Blot analysis, glucose levels, cholesterol and lipid levels by HPLC separation methods and triglyceride and liver enzyme levels (perfomed by LabCorp Preclinical Services; San Diego, Calif.). Data are normalized to saline controls.

[5] = Glucose, cholesterol and lipoprotein levels in ApoE knockout mice; conditions: for Lipoprotein Levels HDL: Control 51; for Glucose Levels: Control 225; for Lipoprotein Levels LDL: Control 525; for Lipoprotein Levels VLDL: Control 1190; for Cholesterol Levels: Control 1750
Method: as §3, §4

[6] = Liver enzyme levels in ApoE knockout mice; conditions: for Liver Enzyme Levels AST: Control 55; for Liver Enzyme Levels ALT: Control 56
Text: Female ApoE knockout mice ranged in age from 5 to 7 weeks and were placed on a normal diet for 2 weeks before study initiation. ApoE knockout mice were then fed ad libitum a 60% fat diet, with 0.15% added cholesterol to induce dyslipidemia and obesity. […]
as §4

Sequence: GTCCCTGAAGATGTCAATGC (2'-MOE gapmer with phosphorothioates, pattern not given here) [ISIS 147764, 2′-MOE gapmer phosphorothioate oligonucleotide to mouse apolipoprotein B]
- reduction of target mRNA levels in liver (apolipoprotein B mRNA [1]; 5 mg/kg i.p. every three days): 15%
- reduction of target mRNA levels in liver (apolipoprotein B mRNA [1]; 25 mg/kg i.p. every three days): 75%
- reduction of target mRNA levels in liver (apolipoprotein B mRNA [1]; 50 mg/kg i.p. every three days): 88%
- Percent Inhibition of cholesterol levels ([2]; 5 mg/kg, 0 weeks): 0%
- Percent Inhibition of cholesterol levels ([2]; 5 mg/kg, 2 weeks): 5%
- Percent Inhibition of cholesterol levels ([2]; 5 mg/kg, 6 weeks): 10%
- triglycerides ([2]; 5 mg/kg): 125 mg/dL
- serum cholesterol ([2]; 5 mg/kg): 225 mg/dL
- Percent Inhibition of cholesterol levels ([2]; 25 mg/kg, 0 weeks): 0%
- Percent Inhibition of cholesterol levels ([2]; 25 mg/kg, 2 weeks): 12%
- Percent Inhibition of cholesterol levels ([2]; 25 mg/kg, 6 weeks): 45%
- triglycerides ([2]; 25 mg/kg): 150 mg/dL
- serum cholesterol ([2]; 25 mg/kg): 125 mg/dL
- Percent Inhibition of cholesterol levels ([2]; 50 mg/kg, 0 weeks): 0%
- Percent Inhibition of cholesterol levels ([2]; 50 mg/kg, 2 weeks): 20%
- Percent Inhibition of cholesterol levels ([2]; 50 mg/kg, 6 weeks): 55%
- triglycerides ([2]; 50 mg/kg): 85 mg/dL
- serum cholesterol ([2]; 50 mg/kg): 110 mg/dL
- serum glucose levels ([3]; 5 mg/kg): 225 mg/dL
- serum glucose levels ([3]; 25 mg/kg): 190 mg/dL
- serum glucose levels ([3]; 50 mg/kg): 180 mg/dL
- mRNA Percent Inhibition (apolipoprotein B mRNA [4]; 5 mg/kg i.p. every three days): 2%
- mRNA Percent Inhibition (apolipoprotein B mRNA [4]; 25 mg/kg i.p. every three days): 42%
- mRNA Percent Inhibition (apolipoprotein B mRNA [4]; 50 mg/kg i.p. every three days): 70%
- Lipoprotein Levels HDL ([5]; 5 mg/kg): 49 mg/dL
- Glucose Levels ([5]; 5 mg/kg): 195 mg/dL
- Lipoprotein Levels LDL ([5]; 5 mg/kg): 475 mg/dL
- Lipoprotein Levels VLDL ([5]; 5 mg/kg): 1111 mg/dL
- Cholesterol Levels ([5]; 5 mg/kg): 1630 mg/dL
- Lipoprotein Levels HDL ([5]; 25 mg/kg): 62 mg/dL
- Glucose Levels ([5]; 25 mg/kg): 209 mg/dL
- Lipoprotein Levels LDL ([5]; 25 mg/kg): 500 mg/dL
- Lipoprotein Levels VLDL ([5]; 25 mg/kg): 1194 mg/dL
- Cholesterol Levels ([5]; 25 mg/kg): 1750 mg/dL
- Lipoprotein Levels HDL ([5]; 50 mg/kg): 61 mg/dL
- Glucose Levels ([5]; 50 mg/kg): 191 mg/dL
- Lipoprotein Levels LDL ([5]; 50 mg/kg): 325 mg/dL
- Lipoprotein Levels VLDL ([5]; 50 mg/kg): 1113 mg/dL
- Cholesterol Levels ([5]; 50 mg/kg): 1490 mg/dL
- changes in liver enzyme levels [6]: No significant changes
- Liver Enzyme Levels AST ([6]; 5 mg/kg): 50 IU/L
- Liver Enzyme Levels ALT ([6]; 5 mg/kg): 48 IU/L
- Liver Enzyme Levels AST ([6]; 25 mg/kg): 60 IU/L
- Liver Enzyme Levels ALT ([6]; 25 mg/kg): 59 IU/L
- Liver Enzyme Levels AST ([6]; 50 mg/kg): 85 IU/L
- Liver Enzyme Levels ALT ([6]; 50 mg/kg): 87 IU/L
